The values below are quoted from earlier work in patent publication US10545073B2, “Method and instrument for extracting a component from a sample” (priority 2016, dated 2020).

Turning to `Fc1ccc([C@@H]2CCNC[C@H]2COc2ccc3c(c2)OCO3)cc1` [Paroxetine], the log partition coefficient (log P) is listed as 3.89.

Consider `CNC(=C[N+](=O)[O-])NCCSCc1ccc(CN(C)C)o1` [Ranitidine], for which the “log P” value is given as 1.23.

On to `CC(C)(C)NCC(O)c1ccc(O)c(CO)c1` (stereo not shown) [Salbutamol], for which the “log P” value is reported as 0.01.

In the case of `CN[C@H]1CC[C@@H](c2ccc(Cl)c(Cl)c2)c2ccccc21` [Sertraline], the “log P” value is 4.81.
